Experiment: Plasma exposure (PK analysis) in the xenograft efficacy study
Format: in vivo
Conditions: mouse, oral, COLO205 xenograft model, 25 mg/kg twice daily, read-out: plasma exposure, steady state AUC
Method: All animal studies were conducted in accordance with the Institute for Laboratory Animal Research Guide for the Care and Use of Laboratory Animals and the USDA Animal Welfare Act. The same formulation was used for both COL0205 and B9 xenograft studies. The powder of test compound was dissolved in pure N-methyl-2-pyrrolidone (NMP). Diluent consists of PEG400: TPGS:Poloxamer 407:Water (40:5:5:50). Before gavage administration, fresh stock of NMP compound solution (or NMP for vehicle) was thoroughly mixed with the diluents to make a uniform suspension. Dosing volume is 5 μl/g. On the last day of the efficacy study, blood samples were collected at 0, 2, 4, and 8 hrs after last dosing, 2 animals/time point, for PK analysis.

CCCS(=O)(=O)Nc1ccc(F)c(C(=O)c2c[nH]c3ncc(-c4ccc(Cl)cc4)cc23)c1F [vemurafenib]
AUC: 200 µg·h/mL
